One substance from US20210337802A1, “COMPOSITION AND PROCESS FOR RECONDITIONING RESPIRATORS AND OTHER PERSONAL PROTECTIVE EQUIPMENT” (Tygrus, LLC, priority 2020, published 2021) can be followed below.

Type in all cases: physicochemical
Data set [1] is described as follows: Acidity titration for hydrogen ion content (ASTM D1067 Test Method A). As to conditions: titrated to pH 8.6; Example materials at 1% by volume in water.
Excerpt: The testing was completed using a Metrohm 826 Titrando equipped with a pH probe.
A short description of data set [2]: Excess hydrogen ion concentration and pH after admixing with water. Particulars: 5 ml material in 5 ml deionized and distilled water, standard temperature and pressure. As to the method: The excess hydrogen ion concentration is measured as greater than 15% by volume and the pH of the material is determined to be 1.
The nature of data set [3]: Conductivity of diluted samples (EPA method 120.1). Particulars: samples diluted with de-ionized water; Example materials at 1% by volume in water.
Excerpt: In order to test for conductivity the samples are each diluted with de-ionized water for analysis. The testing is completed using a Mettler Toledo Seven Excellence Meter with a conductivity probe following EPA method 120.1.
Data set [4] is described as follows: Freeze point by DSC (USP <891>). As to conditions: Example materials at 1% by volume in water.
Description: In order to evaluate freezing point, the samples are analyzed using a TA Instruments Q100 DSC equipped with an RCS-90 cooling system following USP <891>.

“hydrogen (1+), triaqua-μ3-oxotri sulfate (1:1) [Example I]”: the “Acidity @ pH 8.6” value in data set [1] was 1307.28 meq/L. The same substance displayed a pH in data set [2] of 1. The substance further showed a Conductivity in data set [3] of 551 mS/cm. Moreover, the “Melting Temperature (freeze point)” value in data set [4] is −9.07 °C.
